Tests used:
[1] = molecular target: Human neutrophil elastase (Homo sapiens (Human), UniProt P08246); assay: Human Neutrophil Elastase Assay; type: biochemical; settings: substrate MeOSuc-Ala-Ala-Pro-Val-AMC 250 μM, pH 7.5, room temperature
[2] = molecular target: neutrophil elastase in human plasma (Homo sapiens (Human), UniProt P08246); assay: Neutrophil elastase inhibitory activity in human plasma; type: biochemical; settings: human plasma assay (zymosan-stimulated blood plasma), substrate 250 μM, pH 7.5
neutrophil elastase in human plasma, sequence (P08246 30-247): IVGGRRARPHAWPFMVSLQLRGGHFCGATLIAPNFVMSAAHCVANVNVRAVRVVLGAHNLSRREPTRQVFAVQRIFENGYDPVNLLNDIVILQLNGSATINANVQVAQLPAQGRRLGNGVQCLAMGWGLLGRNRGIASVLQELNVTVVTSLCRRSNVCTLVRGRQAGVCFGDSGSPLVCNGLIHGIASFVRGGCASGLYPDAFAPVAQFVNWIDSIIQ

Human neutrophil elastase, sequence (P08246 30-247): as above

| IC50 [1] [nM] | IC50 [2] [nM] | Compound |
| --- | --- | --- |
| 3 | 2.9 | N#Cc1ccc(C2C3=C(CCNC3=O)N(c3cccc(C(F)(F)F)c3)C(=O)N2CC(N)=O)cc1 (centres unmarked) [Example 11, 2-(4-(4-Cyanophenyl)-2,5-dioxo-1-(3-(trifluoromethyl)phenyl)-1,2,5,6,7,8-hexahydropyrido[4,3-d]pyrimidin-3(4H)-yl)acetamide] |
| < 1 | < 1 | N#Cc1ccc(C2C3=C(CCNC3=O)N(c3cccc(C(F)(F)F)c3)C(=O)N2C(=O)NCCO)cc1 (centres unmarked) [Example 17, 4-(4-Cyanophenyl)-N-(2-hydroxyethyl)-2,5-dioxo-1-[3-(trifluoromethyl)phenyl]-1H,2H,3H,4H,5H,6H,7H,8H-pyrido[4,3-d]pyrimidine-3-carboxamide] |
| < 1 | 1.5 | CN1C(=O)N(c2cccc(C(F)(F)F)c2)C2=C(C(=O)NCC2)C1c1ccc(C#N)cc1-c1cnco1 (racemic) [Example 25, 4-{3-Methyl-2,5-dioxo-1-[3-(trifluoromethyl)phenyl]-1H,2H,3H,4H,5H,6H,7H,8H-pyrido[4,3-d]pyrimidin-4-yl}-3-(1,3-oxazol-5-yl)benzonitrile] |
| 1200 | – | CNC(=O)CN1C(=O)N(c2cccc(C(F)(F)F)c2)C2=C(C(=O)NCC2)[C@@H]1c1ccc(C#N)cc1 [Example 12B, (S)-2-(4-(4-Cyanophenyl)-2,5-dioxo-1-(3-(trifluoromethyl)phenyl)-1,2,5,6,7,8-hexahydropyrido[4,3-d]pyrimidin-3(4H)-yl)-N-methylacetamide] |
| < 1 | 1.4 | Cn1cc(-c2cc(C#N)ccc2C2NC(=O)N(c3cccc(C(F)(F)F)c3)C3=C2C(=O)NCC3)cn1 (centres unmarked) [Example 24, 4-{2,5-Dioxo-1-[3-(trifluoromethyl)phenyl]-1H,2H,3H,4H,5H,6H,7H,8H-pyrido-[4,3-d]pyrimidin-4-yl}-3-(1-methyl-1H-pyrazol-4-yl)benzonitrile] |
| < 1 | < 1 | N#Cc1ccc(C2NC(=O)N(c3cccc(C(F)(F)F)c3)C3=C2C(=O)NCC3)c(C(F)(F)F)c1 (centres unmarked) [Example 27, 4-{2,5-Dioxo-1-[3-(trifluoromethyl)phenyl]-1H,2H,3H,4H,5H,6H,7H,8H-pyrido-[4,3-d]pyrimidin-4-yl}-3-(trifluoromethyl)benzonitrile] |
| 17 | – | CN1C(=O)N(c2cccc(C(F)(F)F)c2)C2=C(C(=O)NCC2)[C@@H]1c1ccc(C#N)cc1-c1cnn(C)c1 [Example 31B, 3-(1-Methyl-1H-pyrazol-4-yl)-4-[(4S)-3-methyl-2,5-dioxo-1-[3-(trifluoromethyl)-phenyl]-1H,2H,3H,4H,5H,6H,7H,8H-pyrido[4,3-d]pyrimidin-4-yl]benzonitrile] |
| > 10000 | – | N#Cc1ccc([C@@H]2NC(=O)N(c3cccc(C(F)F)c3)C3=C2C(=O)NCC3)cc1 [Example 2B, (S)-4-(1-(3-(Difluoromethyl)phenyl)-2,5-dioxo-1,2,3,4,5,6,7,8-octahydropyrido[4,3-d]-pyrimidin-4-yl)benzonitrile] |
| 3.8 | 6.7 | N#Cc1ccc(C2NC(=O)N(c3cccc(C(F)(F)F)c3)C3=C2C(=O)N(C(=O)NCCO)CC3)cc1 (centres unmarked) [Example 18, 4-(4-Cyanophenyl)-N-(2-hydroxyethyl)-2,5-dioxo-1-[3-(trifluoromethyl)phenyl]-1H,2H,3H,4H,5H,6H,7H,8H-pyrido[4,3-d]pyrimidine-6-carboxamide] |
| < 1 | 2.6 | CN(C)C(=O)CN1C(=O)N(c2cccc(C(F)(F)F)c2)C2=C(C(=O)N(C)CC2)C1c1ccc(C#N)cc1 (centres unmarked) [Example 15.1] |
| 36 | – | CN1C(=O)N(c2cccc(C(F)F)c2)C2=C(C(=O)NCC2)[C@@H]1c1ccc(C#N)cc1 [Example 8B, (S)-4-(1-(3-(Difluoromethyl)phenyl)-3-methyl-2,5-dioxo-1,2,3,4,5,6,7,8-octahydropyrido[4,3-d]pyrimidin-4-yl)benzonitrile] |
| 3 | 14 | CN1CCC2=C(C1=O)C(c1ccc(C#N)cc1)N(CC(N)=O)C(=O)N2c1cccc(C(F)(F)F)c1 (centres unmarked) [Example 14, 2-(4-(4-Cyanophenyl)-6-methyl-2,5-dioxo-1-(3-(trifluoromethyl)phenyl)-1,2,5,6,7,8-hexahydropyrido[4,3-d]pyrimidin-3(4H)-yl)acetamide] |
| 4.9 | 18 | CCNC(=O)N1CCC2=C(C1=O)C(c1ccc(C#N)cc1)NC(=O)N2c1cccc(C(F)(F)F)c1 (centres unmarked) [Example 19, 4-(4-Cyanophenyl)-N-ethyl-2,5-dioxo-1-[3-(trifluoromethyl)phenyl]-1H,2H,3H,4H,5H,6H,7H,8H-pyrido[4,3-d]pyrimidine-6-carboxamide] |
| < 1 | 1.1 | CN1C(=O)N(c2cccc(C(F)(F)F)c2)C2=C(C(=O)NCC2)C1c1ccc(C#N)cc1C(F)(F)F (centres unmarked) [Example 28, 4-{3-Methyl-2,5-dioxo-1-[3-(trifluoromethyl)phenyl]-1H,2H,3H,4H,5H,6H,7H,8H-pyrido[4,3-d]pyrimidin-4-yl}-3-(trifluoromethyl)benzonitrile] |
| 9.8 | 13 | CC1(C)CC2=C(C(=O)N1)C(c1ccc(C#N)cc1)NC(=O)N2c1cccc(C(F)(F)F)c1 (centres unmarked) [Example 3, 4-(7,7-Dimethyl-2,5-dioxo-1-(3-(trifluoromethyl)phenyl)-1,2,3,4,5,6,7,8-octahydropyrido[4,3-d]pyrimidin-4-yl)benzonitrile] |
| 940 | – | N#Cc1ccc([C@@H]2NC(=O)N(c3cccc(C(F)(F)F)c3)C3=C2C(=O)NCC3)cc1 [Example 1B, (S)-4-(2,5-Dioxo-1-(3-(trifluoromethyl)phenyl)-1,2,3,4,5,6,7,8-octahydropyrido[4,3-d]-pyrimidin-4-yl)benzonitrile] |
| 39 | – | CN1C(=O)N(c2cccc(C(F)(F)F)c2)C2=C(C(=O)NCC2)[C@@H]1c1ccc(C#N)cc1CO [Example 32B, 3-(Hydroxymethyl)-4-[(4S)-3-methyl-2,5-dioxo-1-[3-(trifluoromethyl)phenyl]-1H,2H,3H,4H,5H,6H,7H,8H-pyrido[4,3-d]pyrimidin-4-yl]benzonitrile] |
| 5.8 | 2.9 | CN1CCC2=C(C1=O)C(c1ccc(C#N)cc1)NC(=O)N2c1cccc(C(F)(F)F)c1 (racemic) [Example 4, 4-(6-Methyl-2,5-dioxo-1-(3-(trifluoromethyl)phenyl)-1,2,3,4,5,6,7,8-octahydropyrido[4,3-d]pyrimidin-4-yl)benzonitrile] |
| 12 | – | CN1C(=O)N(c2cccc(C(F)(F)F)c2)C2=C(C(=O)NCC2)[C@@H]1c1ccc(C#N)cc1-c1cnco1 [Example 30B, 4-[(4S)-3-Methyl-2,5-dioxo-1-[3-(trifluoromethyl)phenyl]-1H,2H,3H,4H,5H,6H,7H,8H-pyrido[4,3-d]pyrimidin-4-yl]-3-(1,3-oxazol-5-yl)benzonitrile] |
| 1.2 | 2 | CN1CCC2=C(C1=O)[C@@H](c1ccc(C#N)cc1)N(C)C(=O)N2c1cccc(C(F)(F)F)c1 [Example 7, (R)-4-(3,6-Dimethyl-2,5-dioxo-1-(3-(trifluoromethyl)phenyl)-1,2,3,4,5,6,7,8-octahydropyrido[4,3-d]pyrimidin-4-yl)benzonitrile] |
| < 1 | 1.4 | CN1C(=O)N(c2cccc(C(F)(F)F)c2)C2=C(C(=O)NCC2)C1c1ccc(C#N)cc1-c1cnn(C)c1 (racemic) [Example 26, 3-(1-Methyl-1H-pyrazol-4-yl)-4-{3-methyl-2,5-dioxo-1-[3-(trifluoromethyl)phenyl]-1H,2H,3H,4H,5H,6H,7H,8H-pyrido[4,3-d]pyrimidin-4-yl}benzonitrile] |
| 1900 | – | CN1CCC2=C(C1=O)[C@H](c1ccc(C#N)cc1)NC(=O)N2c1cccc(C(F)(F)F)c1 [Example 4B, (S)-4-(6-Methyl-2,5-dioxo-1-(3-(trifluoromethyl)phenyl)-1,2,3,4,5,6,7,8-octahydropyrido[4,3-d]pyrimidin-4-yl)benzonitrile] |
| < 1 | 2.4 | CNC(=O)N1C(=O)N(c2cccc(C(F)(F)F)c2)C2=C(C(=O)NCC2)C1c1ccc(C#N)cc1 (centres unmarked) [Example 16, 4-(4-Cyanophenyl)-N-methyl-2,5-dioxo-1-(3-(trifluoromethyl)phenyl)-1,2,5,6,7,8-hexahydropyrido[4,3-d]pyrimidine-3(4H)-carboxamide] |

| Compound | IC50 [1] [nM] | IC50 [2] [nM] |
| --- | --- | --- |
| CNC(=O)CN1C(=O)N(c2cccc(C(F)(F)F)c2)C2=C(C(=O)NCC2)[C@H]1c1ccc(C#N)cc1 [Example 12A, (R)-2-(4-(4-Cyanophenyl)-2,5-dioxo-1-(3-(trifluoromethyl)phenyl)-1,2,5,6,7,8-hexahydropyrido[4,3-d]pyrimidin-3(4H)-yl)-N-methylacetamide] | 1.3 | < 1 |
| N#Cc1ccc(C2C3=C(CCNC3=O)N(c3cccc(C(F)(F)F)c3)C(=O)N2CC(=O)N2CCC(F)C2)cc1 (centres unmarked) [Example 12.8] | < 1 | 1.1 |
| CN(C)C(=O)CN1C(=O)N(c2cccc(C(F)(F)F)c2)C2=C(C(=O)NCC2)C1c1ccc(C#N)cc1 (centres unmarked) [Example 12.1] | 1.1 | < 1 |
| Cn1ncc2c1CN(C(=O)CN1C(=O)N(c3cccc(C(F)(F)F)c3)C3=C(C(=O)NCC3)C1c1ccc(C#N)cc1)C2 (centres unmarked) [Example 12.9] | < 1 | 1 |
| N#Cc1ccc(C2C3=C(CCNC3=O)N(c3cccc(C(F)(F)F)c3)C(=O)N2CC(=O)N2CC3CC3C2)cc1 (centres unmarked) [Example 12.5] | < 1 | < 1 |
| CNC(=O)CN1C(=O)N(c2cccc(C(F)(F)F)c2)C2=C(C(=O)NCC2)C1c1ccc(C#N)cc1 (racemic) [Example 12, 2-(4-(4-Cyanophenyl)-2,5-dioxo-1-(3-(trifluoromethyl)phenyl)-1,2,5,6,7,8-hexahydropyrido[4,3-d]pyrimidin-3(4H)-yl)-N-methylacetamide] | 2 | 2.8 |
| N#Cc1ccc(C2C3=C(CCNC3=O)N(c3cccc(C(F)(F)F)c3)C(=O)N2CC(=O)NCCO)cc1 (centres unmarked) [Example 12.3] | 2.1 | 3.6 |
| CCNC(=O)CN1C(=O)N(c2cccc(C(F)(F)F)c2)C2=C(C(=O)NCC2)C1c1ccc(C#N)cc1 (centres unmarked) [Example 12.2] | 2.4 | 2.5 |
| N#Cc1ccc(C2C3=C(CCNC3=O)N(c3cccc(C(F)(F)F)c3)C(=O)N2CC(=O)N2CCCCC2)cc1 (centres unmarked) [Example 12.6] | < 1 | < 1 |

Reference: US9657015B2, “Substituted bicyclic dihydropyrimidinones and their use as inhibitors of neutrophil elastase activity” (Boehringer Ingelheim International GmbH, priority 2014, dated 2017)
